How the values were obtained:
DmAgo2ΔQ [1] = target: T1, DmAgo2ΔQ (Drosophila melanogaster, UniProt Q9VUQ5); test: filter binding, competition with […]-bantam miRNA; details: PBS, 5 mM MgCl2, room temperature; 5'-end miRNA site; high concentrations
T1 sequence (Q9VUQ5 400-1214 limits assumed): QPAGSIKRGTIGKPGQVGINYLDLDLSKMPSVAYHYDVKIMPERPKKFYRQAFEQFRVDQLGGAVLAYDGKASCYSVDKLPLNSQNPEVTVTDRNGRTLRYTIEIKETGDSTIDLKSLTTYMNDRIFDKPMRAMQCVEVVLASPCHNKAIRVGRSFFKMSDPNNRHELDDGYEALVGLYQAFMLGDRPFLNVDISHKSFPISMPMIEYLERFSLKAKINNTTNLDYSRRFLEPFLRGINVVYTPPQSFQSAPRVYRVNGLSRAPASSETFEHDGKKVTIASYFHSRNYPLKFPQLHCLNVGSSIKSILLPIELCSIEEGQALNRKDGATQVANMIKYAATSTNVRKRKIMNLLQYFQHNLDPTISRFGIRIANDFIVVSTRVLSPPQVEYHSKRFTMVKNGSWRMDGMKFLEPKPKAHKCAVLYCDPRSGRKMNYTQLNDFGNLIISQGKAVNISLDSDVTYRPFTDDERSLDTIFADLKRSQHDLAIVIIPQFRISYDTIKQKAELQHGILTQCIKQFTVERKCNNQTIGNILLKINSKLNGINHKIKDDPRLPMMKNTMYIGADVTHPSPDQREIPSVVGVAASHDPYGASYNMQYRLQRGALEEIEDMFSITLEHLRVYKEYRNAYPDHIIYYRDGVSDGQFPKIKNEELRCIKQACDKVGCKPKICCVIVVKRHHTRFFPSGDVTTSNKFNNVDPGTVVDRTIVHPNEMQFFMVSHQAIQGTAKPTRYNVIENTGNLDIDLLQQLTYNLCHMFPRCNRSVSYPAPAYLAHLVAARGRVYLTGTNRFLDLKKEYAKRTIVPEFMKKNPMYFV

DmAgo2-MID [2] = target: T2, DmAgo2-MID (Drosophila melanogaster, UniProt Q9VUQ5); test: m7GTP-Sepharose pull-down, competition with free nucleotide; format: binding; details: 500 uM GTP, PBS, 5 mM MgCl2, 4 C; competitive
T2 sequence (Q9VUQ5 740-884 limits assumed): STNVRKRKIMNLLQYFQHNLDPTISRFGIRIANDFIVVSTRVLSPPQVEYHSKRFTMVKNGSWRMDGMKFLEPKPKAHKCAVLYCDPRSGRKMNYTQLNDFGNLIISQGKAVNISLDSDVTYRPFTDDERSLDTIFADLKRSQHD

PurR-C [3] = target: T3, PurR-C (Escherichia coli, UniProt P0ACP7); test: Sepharose resin pull-down, competition with free nucleotide; format: binding; details: 500 uM nucleotide, PBS, 5 mM MgCl2, 4 C; data not shown
T3 sequence (P0ACP7 60-341 limits assumed): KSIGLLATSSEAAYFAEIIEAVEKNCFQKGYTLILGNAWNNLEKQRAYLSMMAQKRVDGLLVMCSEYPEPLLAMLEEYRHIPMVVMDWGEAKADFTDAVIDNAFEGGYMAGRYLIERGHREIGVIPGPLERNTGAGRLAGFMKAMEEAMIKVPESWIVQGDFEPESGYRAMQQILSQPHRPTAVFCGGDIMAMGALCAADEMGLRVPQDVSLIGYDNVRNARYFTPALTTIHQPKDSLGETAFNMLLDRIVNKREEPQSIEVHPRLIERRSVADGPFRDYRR

DmAgo2ΔQ [4] = target: T1, DmAgo2ΔQ; test: resin pull-down, GTP-Sepharose; format: binding; details: ligand immobilised on Sepharose; competed by miRNA; PBS, MgCl2, 4 C
PurR-C [5] = target: T3, PurR-C; test: resin pull-down, m7GTP-Sepharose; format: binding; details: ligand immobilised on Sepharose; PBS, 5 mM MgCl2, 4 C
CeAlg1-MID = CeAlg1-MID (Caenorhabditis elegans, UniProt G5EGR6); test: resin pull-down, m7GTP-Sepharose; format: binding; details: ligand immobilised on Sepharose; PBS, 5 mM MgCl2, 4 C
CeRde1 MID domain = target: T4, CeRde1 MID domain (Caenorhabditis elegans, UniProt G5EEH0); test: resin pull-down, m7GTP-Sepharose; format: binding; details: ligand immobilised on Sepharose; PBS, 5 mM MgCl2, 4 C
T4 sequence (G5EEH0 470-618 limits assumed): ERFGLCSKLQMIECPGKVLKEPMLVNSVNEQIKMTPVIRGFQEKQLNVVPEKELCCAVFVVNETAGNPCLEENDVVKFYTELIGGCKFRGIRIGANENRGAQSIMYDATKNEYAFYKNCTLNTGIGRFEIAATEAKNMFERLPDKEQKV

DmeIF4E = target: T5, DmeIF4E (Drosophila melanogaster, UniProt P48598); test: resin pull-down, m7GTP-Sepharose; format: binding; details: ligand immobilised on Sepharose; PBS, 5 mM MgCl2, 4 C
T5 sequence (P48598 1-259): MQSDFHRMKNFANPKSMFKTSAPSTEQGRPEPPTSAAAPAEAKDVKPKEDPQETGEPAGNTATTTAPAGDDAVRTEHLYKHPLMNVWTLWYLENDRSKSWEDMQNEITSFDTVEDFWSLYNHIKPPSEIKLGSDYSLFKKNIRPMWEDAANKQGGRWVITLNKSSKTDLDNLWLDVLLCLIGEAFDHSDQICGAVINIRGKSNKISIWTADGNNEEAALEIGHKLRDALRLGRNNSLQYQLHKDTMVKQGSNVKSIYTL

DmAgo2-MID [6] = target: T2, DmAgo2-MID; test: resin pull-down, m7GTP-Sepharose; format: binding; details: ligand immobilised on Sepharose; PBS, 5 mM MgCl2, 4 C
DmAgo1-MID = DmAgo1-MID (Drosophila melanogaster, UniProt A1Z9J5); test: resin pull-down, m7GTP-Sepharose; format: binding; details: ligand immobilised on Sepharose; PBS, 5 mM MgCl2, 4 C
Sequence of DmAgo1-MID (A1Z9J5 538-665): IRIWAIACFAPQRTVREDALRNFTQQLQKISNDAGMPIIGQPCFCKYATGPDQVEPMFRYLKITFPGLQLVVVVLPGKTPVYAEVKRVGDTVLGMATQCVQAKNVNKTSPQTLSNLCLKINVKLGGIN

Sequence of CeAlg1-MID (G5EGR6 540-686 limits assumed): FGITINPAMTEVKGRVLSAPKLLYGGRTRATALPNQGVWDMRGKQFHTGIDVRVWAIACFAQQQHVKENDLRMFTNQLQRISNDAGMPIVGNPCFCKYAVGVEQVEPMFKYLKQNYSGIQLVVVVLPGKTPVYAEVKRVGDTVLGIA

Nc1nc2c(ncn2[C@@H]2O[C@H](COP(=O)(O)O)[C@@H](O)[C@H]2O)c(=O)[nH]1 [GMP]
filter binding, competition with 32P-bantam miRNA (DmAgo2ΔQ [1]): allosteric behavior was not observed for DmAgo2ΔQ, though GMP could compete at high concentrations

Nc1nc2c(ncn2[C@@H]2O[C@H](COP(=O)(O)OP(=O)(O)OP(=O)(O)O)[C@@H](O)[C@H]2O)c(=O)[nH]1 [GTP]
m7GTP-Sepharose pull-down, competition with free nucleotide (DmAgo2-MID [2]): DmAgo2-MID binding was also readily competed by GTP
Sepharose resin pull-down, competition with free nucleotide (PurR-C [3]): PurR binding to each resin was easily competed by both GTP and m^7GpppG
resin pull-down, GTP-Sepharose (DmAgo2ΔQ [4]): DmAgo2ΔQ binds poorly to m^7GTP, and better to GTP- and GMP-Sepharose

C[n+]1cn([C@@H]2O[C@H](COP(=O)(O)OP(=O)(O)OP(=O)(O)O)[C@@H](O)[C@H]2O)c2nc(N)[nH]c(=O)c21 [m^7GTP]
resin pull-down, m7GTP-Sepharose (PurR-C [5]): as well as the ligand-binding domain of PurR, were able to bind to both resins
resin pull-down, m7GTP-Sepharose (CeAlg1-MID): miRNA-related Argonautes (DmAgo1, CeAlg1) consistently bound more effectively to m^7GTP-Sepharose
resin pull-down, m7GTP-Sepharose (CeRde1 MID domain): All of the MID domains [...] were able to bind to both resins
resin pull-down, m7GTP-Sepharose (DmeIF4E): the binding of DmeIF4E to m^7GTP-Sepharose was highly efficient
resin pull-down, m7GTP-Sepharose (DmAgo2-MID [6]): All of the MID domains [...] were able to bind to both resins
resin pull-down, m7GTP-Sepharose (DmAgo1-MID): miRNA-related Argonautes (DmAgo1, CeAlg1) consistently bound more effectively to m^7GTP-Sepharose

C[n+]1cn([C@@H]2O[C@H](COP(=O)(O)OP(=O)(O)OP(=O)(O)OC[C@H]3O[C@@H](n4cnc5c(=O)[nH]c(N)nc54)[C@H](O)[C@@H]3O)[C@@H](O)[C@H]2O)c2nc(N)[nH]c(=O)c21 [m^7GpppG]
Sepharose resin pull-down, competition with free nucleotide (PurR-C [3]): PurR binding to each resin was easily competed by both GTP and m^7GpppG
